Laboratory results from patent publication US20110039721A1, “METHOD FOR PREDICTION ABOUT CARCINOGENICITY OF SUBSTANCE IN RODENT” (Chemicals Evaluation and Research Institute, priority 2007, published 2011).
Read-outs that look alike come from different tables or passages of the source.

Legend:
[1] = test system: mRNA expressed from the genes (A) to (D) in rat liver; assay: Behavior of genes (mRNA expression level, oligo-DNA microarray) in rat liver after 28-day oral administration; format: in vivo; details: for Behavior of gene caused by administration of chemical substance, Gene No. 4846 / Behavior of gene caused by administration of chemical substance, Gene No. 2026 / Behavior of gene caused by administration of chemical substance, Gene No. 4218 / Behavior of gene caused by administration of chemical substance, Gene No. 6182 / Behavior of gene caused by administration of chemical substance, Gene No. 5600: gene group (A); for Behavior of gene caused by administration of chemical substance, Gene No. 4846: Unigene No. Rn.144554; for Behavior of gene caused by administration of chemical substance, Gene No. 2026 / Behavior of gene caused by administration of chemical substance, Gene No. 4218: Unigene No. Rn.167075; for Behavior of gene caused by administration of chemical substance, Gene No. 6182: Unigene No. Rn.5834; for Behavior of gene caused by administration of chemical substance, Gene No. 5600: Unigene No. Rn.9836; for Behavior of gene caused by administration of chemical substance, Gene No. 1494 / Behavior of gene caused by administration of chemical substance, Gene No. 2045 / Behavior of gene caused by administration of chemical substance, Gene No. 2203: gene group (B); for Behavior of gene caused by administration of chemical substance, Gene No. 1494: Unigene No. Rn.1430; for Behavior of gene caused by administration of chemical substance, Gene No. 2045: Unigene No. Rn.19329; for Behavior of gene caused by administration of chemical substance, Gene No. 2203: Unigene No. Rn.21240; for Behavior of gene caused by administration of chemical substance, Gene No. 533 / Behavior of gene caused by administration of chemical substance, Gene No. 725 / Behavior of gene caused by administration of chemical substance, Gene No. 1163 / Behavior of gene caused by administration of chemical substance, Gene No. 4973 / Behavior of gene caused by administration of chemical substance, Gene No. 4095 / Behavior of gene caused by administration of chemical substance, Gene No. 1334 / Behavior of gene caused by administration of chemical substance, Gene No. 6620 / Behavior of gene caused by administration of chemical substance, Gene No. 6303 / Behavior of gene caused by administration of chemical substance, Gene No. 5878 / Behavior of gene caused by administration of chemical substance, Gene No. 1131 / Behavior of gene caused by administration of chemical substance, Gene No. 1562 / Behavior of gene caused by administration of chemical substance, Gene No. 1741 / Behavior of gene caused by administration of chemical substance, Gene No. 893 / Behavior of gene caused by administration of chemical substance, Gene No. 6026 / Behavior of gene caused by administration of chemical substance, Gene No. 154 / Behavior of gene caused by administration of chemical substance, Gene No. 1993 / Behavior of gene caused by administration of chemical substance, Gene No. 813 / Behavior of gene caused by administration of chemical substance, Gene No. 2494 / Behavior of gene caused by administration of chemical substance, Gene No. 2546 / Behavior of gene caused by administration of chemical substance, Gene No. 3776 / Behavior of gene caused by administration of chemical substance, Gene No. 3929 / Behavior of gene caused by administration of chemical substance, Gene No. 1119 / Behavior of gene caused by administration of chemical substance, Gene No. 6742 / Behavior of gene caused by administration of chemical substance, Gene No. 5634: gene group (C); for Behavior of gene caused by administration of chemical substance, Gene No. 533: Unigene No. Rn.106184; for Behavior of gene caused by administration of chemical substance, Gene No. 725: Unigene No. Rn.108075; for Behavior of gene caused by administration of chemical substance, Gene No. 1163: Unigene No. Rn.11766; for Behavior of gene caused by administration of chemical substance, Gene No. 4973: Unigene No. Rn.118529; for Behavior of gene caused by administration of chemical substance, Gene No. 4095: Unigene No. Rn.119024; for Behavior of gene caused by administration of chemical substance, Gene No. 1334 / Behavior of gene caused by administration of chemical substance, Gene No. 6620: Unigene No. Rn.120914; for Behavior of gene caused by administration of chemical substance, Gene No. 6303: Unigene No. Rn.123063; for Behavior of gene caused by administration of chemical substance, Gene No. 5878: Unigene No. Rn.143213; for Behavior of gene caused by administration of chemical substance, Gene No. 1131: Unigene No. Rn.144946; for Behavior of gene caused by administration of chemical substance, Gene No. 1562: Unigene No. Rn.14744; for Behavior of gene caused by administration of chemical substance, Gene No. 1741: Unigene No. Rn.1647; for Behavior of gene caused by administration of chemical substance, Gene No. 893: Unigene No. Rn.164817; for Behavior of gene caused by administration of chemical substance, Gene No. 6026: Unigene No. Rn.167685; for Behavior of gene caused by administration of chemical substance, Gene No. 154: Unigene No. Rn.185941; for Behavior of gene caused by administration of chemical substance, Gene No. 1993: Unigene No. Rn.18728; for Behavior of gene caused by administration of chemical substance, Gene No. 813: Unigene No. Rn.201760; for Behavior of gene caused by administration of chemical substance, Gene No. 2494: Unigene No. Rn.23969; for Behavior of gene caused by administration of chemical substance, Gene No. 2546: Unigene No. Rn.24561; for Behavior of gene caused by administration of chemical substance, Gene No. 3776: Unigene No. Rn.43232; for Behavior of gene caused by administration of chemical substance, Gene No. 3929: Unigene No. Rn.4620; for Behavior of gene caused by administration of chemical substance, Gene No. 1119: Unigene No. Rn.9757; for Behavior of gene caused by administration of chemical substance, Gene No. 6742: Unigene No. Rn.9779; for Behavior of gene caused by administration of chemical substance, Gene No. 5634: Unigene No. Rn.9862; for Behavior of gene caused by administration of chemical substance, Gene No. 5726: gene group (D), Unigene No. Rn.9939
Summary of the method: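 Liver mRNA measured by oligo-DNA microarray after 28 days of once-daily oral gavage in 5-week-old male F344 rats (n=4 per group), with vehicle controls given equal solvent volume. Significance threshold: 1.5-fold up or down versus control, with changes opposite in direction to other carcinogens counted as not significant.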

liver = details: cited from earlier work
rodent = details: classification of the substance (C+/C−); cited from earlier work
[2] = classification of the substance (M+/M−); cited from earlier work

CC(=O)Oc1ccccc1C(=O)O [TS071, Aspirin]
M−: Mutagenicity by Ames test [2]
Cr−: Liver carcinogenicity (liver; classification of the substance (Cr+/Cr−))
−: Behavior of gene caused by administration of chemical substance, Gene No. 4846 [1] | Behavior of gene caused by administration of chemical substance, Gene No. 2026 [1] | Behavior of gene caused by administration of chemical substance, Gene No. 4218 [1] | Behavior of gene caused by administration of chemical substance, Gene No. 6182 [1] | Behavior of gene caused by administration of chemical substance, Gene No. 5600 [1] | Behavior of gene caused by administration of chemical substance, Gene No. 1494 [1] | Behavior of gene caused by administration of chemical substance, Gene No. 2045 [1] | Behavior of gene caused by administration of chemical substance, Gene No. 2203 [1] | Behavior of gene caused by administration of chemical substance, Gene No. 533 [1] | Behavior of gene caused by administration of chemical substance, Gene No. 725 [1] | Behavior of gene caused by administration of chemical substance, Gene No. 1163 [1] | Behavior of gene caused by administration of chemical substance, Gene No. 4973 [1] | Behavior of gene caused by administration of chemical substance, Gene No. 4095 [1] | Behavior of gene caused by administration of chemical substance, Gene No. 1334 [1] | Behavior of gene caused by administration of chemical substance, Gene No. 6620 [1] | Behavior of gene caused by administration of chemical substance, Gene No. 6303 [1] | Behavior of gene caused by administration of chemical substance, Gene No. 5878 [1] | Behavior of gene caused by administration of chemical substance, Gene No. 1562 [1] | Behavior of gene caused by administration of chemical substance, Gene No. 1741 [1] | Behavior of gene caused by administration of chemical substance, Gene No. 893 [1] | Behavior of gene caused by administration of chemical substance, Gene No. 6026 [1] | Behavior of gene caused by administration of chemical substance, Gene No. 154 [1] | Behavior of gene caused by administration of chemical substance, Gene No. 1993 [1] | Behavior of gene caused by administration of chemical substance, Gene No. 813 [1] | Behavior of gene caused by administration of chemical substance, Gene No. 2494 [1] | Behavior of gene caused by administration of chemical substance, Gene No. 2546 [1] | Behavior of gene caused by administration of chemical substance, Gene No. 3776 [1] | Behavior of gene caused by administration of chemical substance, Gene No. 3929 [1] | Behavior of gene caused by administration of chemical substance, Gene No. 1119 [1] | Behavior of gene caused by administration of chemical substance, Gene No. 6742 [1] | Behavior of gene caused by administration of chemical substance, Gene No. 5634 [1] | Behavior of gene caused by administration of chemical substance, Gene No. 5726 [1]
C−: Carcinogenicity (rodent)
+: Behavior of gene caused by administration of chemical substance, Gene No. 1131 [1]

NC(=O)c1ccccc1C(N)=O [TS073, Phthalamide]
C−: Carcinogenicity (rodent)
Cr−: Liver carcinogenicity (liver; in vivo)
+: Behavior of gene caused by administration of chemical substance, Gene No. 2045 [1]
−: Behavior of gene caused by administration of chemical substance, Gene No. 4846 [1] | Behavior of gene caused by administration of chemical substance, Gene No. 2026 [1] | Behavior of gene caused by administration of chemical substance, Gene No. 4218 [1] | Behavior of gene caused by administration of chemical substance, Gene No. 6182 [1] | Behavior of gene caused by administration of chemical substance, Gene No. 5600 [1] | Behavior of gene caused by administration of chemical substance, Gene No. 1494 [1] | Behavior of gene caused by administration of chemical substance, Gene No. 2203 [1] | Behavior of gene caused by administration of chemical substance, Gene No. 533 [1] | Behavior of gene caused by administration of chemical substance, Gene No. 725 [1] | Behavior of gene caused by administration of chemical substance, Gene No. 1163 [1] | Behavior of gene caused by administration of chemical substance, Gene No. 4973 [1] | Behavior of gene caused by administration of chemical substance, Gene No. 4095 [1] | Behavior of gene caused by administration of chemical substance, Gene No. 1334 [1] | Behavior of gene caused by administration of chemical substance, Gene No. 6620 [1] | Behavior of gene caused by administration of chemical substance, Gene No. 6303 [1] | Behavior of gene caused by administration of chemical substance, Gene No. 5878 [1] | Behavior of gene caused by administration of chemical substance, Gene No. 1131 [1] | Behavior of gene caused by administration of chemical substance, Gene No. 1562 [1] | Behavior of gene caused by administration of chemical substance, Gene No. 1741 [1] | Behavior of gene caused by administration of chemical substance, Gene No. 893 [1] | Behavior of gene caused by administration of chemical substance, Gene No. 6026 [1] | Behavior of gene caused by administration of chemical substance, Gene No. 154 [1] | Behavior of gene caused by administration of chemical substance, Gene No. 1993 [1] | Behavior of gene caused by administration of chemical substance, Gene No. 813 [1] | Behavior of gene caused by administration of chemical substance, Gene No. 2494 [1] | Behavior of gene caused by administration of chemical substance, Gene No. 2546 [1] | Behavior of gene caused by administration of chemical substance, Gene No. 3776 [1] | Behavior of gene caused by administration of chemical substance, Gene No. 3929 [1] | Behavior of gene caused by administration of chemical substance, Gene No. 1119 [1] | Behavior of gene caused by administration of chemical substance, Gene No. 6742 [1] | Behavior of gene caused by administration of chemical substance, Gene No. 5634 [1] | Behavior of gene caused by administration of chemical substance, Gene No. 5726 [1]
M−: Mutagenicity by Ames test [2]
